Data: patent publication US4415566A, “Cephalosporin derivatives” (Boehringer Ingelheim GmbH, priority 1979, dated 1983)
≈ marks a conversion by molar mass, not a printed value. Like-named read-outs stand apart in the source and are kept apart here.

Tests used:
[1] = system: Pseudomonas aeruginosa Walter; assay: Serial dilution test in the microtiter system (MIC), Pseud. aerug. Walter; format: cell-based
Method: (§1) These tests were performed according to the method of the serial dilution test in the microtiter system. The effect of the substances on bacteriostasis was examined in a fluid medium. […] A nutrient medium of the following composition was used. 10 gm of peptone, 8 gm of meat extract-oxoid, 3 gm of sodium chloride, 2 gm of sec. sodium phosphate were diluted with distilled water to […] (pH 7.2-7.4). Only in the test against streptococci 1% of glucose was added. The age of the primary cultures was about 20 hours. The standardization of the pathogen suspension was effected by using a photometer according to "Eppendorf" (test tube dismeter 14 mm, filter 546 nm) with the aid of the turbidity of a comparison suspension consisting of barium sulfate, this suspension being prepared by addition of 3.0 ml of 1% barium chloride solution to 97 ml of 1% sulfuric acid. After the standardization, streptococcus aronson were further diluted to a concentration of 1:15 and the other microorganisms to a concentration of 1:1500 by means of a sodium chloride solution.
(§2) 16 mg of the test substance were put into a 10 ml-measuring flask and filled up to the mark with the solvent. The further dilution series was standardized with distilled water or the respective solvent.
(§3) The cavities of the microtiter plates were filled with 0.2 ml of nutrient medium. Then, 0.01 ml of the corresponding test substance dilution was added and inoculated with 0.01 ml of the standardized suspension. The bacteria were incubated at 37° C. for 18-20 hours. Control tests merely using the solvent were carried out simultaneously.
(§4) The measurement was carried out macroscopically to determine the minimal inhibitory (threshold) concentration, i.e. the lower still bacteriostatically effective concentration.
(§5) Staphylococcus aureus SG 511, Escherichia coli ATCC 11 775, Pseudomonas aeruginosa Hamburgensis and Pseudomonas aeruginosa Walter, Serratia marcescens ATCC 13880, Klebsiella pneumoniae ATCC 10 031 and 272, Proteus mirabilis Hamburgensis, Proteus rettgeri, Enterbacter cloaceae ATCC 13 047 and E. Coli R+TEM (β-lactamase carrier).

[2] = system: Pseudomonas aeruginosa Hamburgensis; assay: Serial dilution test in the microtiter system (MIC), Pseud. aerug. Hbg.; format: cell-based
Method: as §1, §2, §3, §4, §5

[3] = system: Klebsiella pneumoniae 272; assay: Serial dilution test in the microtiter system (MIC), Klebs. pneum. 272; format: cell-based
Method: as §1, §2, §3, §4, §5

[4] = system: Proteus mirabilis Hamburgensis; assay: Serial dilution test in the microtiter system (MIC), Prot. mirabilis; format: cell-based
Method: as §1, §2, §3, §4, §5

Proteus rettgeri = assay: Serial dilution test in the microtiter system (MIC), Prot. rettgeri; format: cell-based; settings: Providencia rettgeri
Method: as §1, §2, §3, §4, §5

[5] = system: Serratia marcescens ATCC 13880; assay: Serial dilution test in the microtiter system (MIC), Serrat. marcesc. ATCC 13880; format: cell-based
Method: as §1, §2, §3, §4, §5

E. coli ATCC 11775 = assay: In vivo activity in mice, E. coli infection; parameters: species or system Female NMRI mice; settings: Escherichia coli, ATCC11775, iPSC, sc, 168 h; E. coli infection i.p.; s.c. administration; per dose; observation 7 days; read-out: ED50 (dose at which 50% of the animals survived)
Method: (§6) A number of compounds of this invention were tested in vivo in mice against experimental infections. Bacteria E. coli ATCC 11775 and Psuedomonas aeruginosa Walter were used as pathogens. An intraperitoneal infection with 0.2 ml of a 5% suspension of the bacteria was induced. This corresponds to about 2×10^6 E. Coli germs and 8×10^5 pseudomonas germs/mouse. […] The groups with E. coli infection were treated with the test compound three times on the first day (1, 4, and 7 hours post infectionem) and for two days thereafter twice a day. The groups with the pseudomonas infection were treated with the test compound 6 times on the first day (1, 3, 6, 9, 12 and 15 hours post infectionem) and for two days thereafter twice a day. The observation time was in both cases 7 days. The results of these tests with representatives of the penicillins and cephalosporins according to the invention are shown in the following table: […]

[6] = system: Klebsiella pneumoniae ATCC 10 031; assay: Serial dilution test in the microtiter system (MIC), Klebs. pneum. ATCC 10031; format: cell-based
Method: as §1, §2, §3, §4, §5

[7] = system: Psuedomonas aeruginosa Walter; assay: In vivo activity in mice, Pseudomonas infection; parameters: species or system Female NMRI mice; settings: Mus musculus, iPSC, sc, 168 h; Pseudomonas infection i.p.; s.c. administration; per dose; observation 7 days; read-out: ED50 (dose at which 50% of the animals survived)
Method: as §6

E. Coli ATCC 9637 = assay: Serial dilution test in the microtiter system (MIC), E. Coli ATCC 9637; format: cell-based; settings: Escherichia coli, ATCC9637
[8] = system: Escherichia coli ATCC 11 775; assay: Serial dilution test in the microtiter system (MIC), E. Coli ATCC 11775; format: cell-based
Method: as §1, §2, §3, §4, §5

[9] = system: Enterbacter cloaceae ATCC 13 047; assay: Serial dilution test in the microtiter system (MIC), Eb. cloaceae ATCC 13047; format: cell-based
Method: as §1, §2, §3, §4, §5

[10] = Table III, Pseud. aerug. Walter, 37° C., 18-20 hours, read-out: MIC
[11] = Table III, Prot. mirabilis, 37° C., 18-20 hours, read-out: MIC
[12] = Table III, E. Coli ATCC 11775, 37° C., 18-20 hours, read-out: MIC
[13] = Table III, Prot. rettgeri, 37° C., 18-20 hours, read-out: MIC
[14] = ATCC13880, Table III, Serrat. marcesc. ATCC 13880, 37° C., 18-20 hours, read-out: MIC
[15] = Table III, E. Coli ATCC 9637, 37° C., 18-20 hours, read-out: MIC
[16] = Table III, Eb. cloaceae ATCC 13047, 37° C., 18-20 hours, read-out: MIC

| Compound | MIC [1] [µg/mL] | MIC [2] [µg/mL] | MIC [3]; 272 [µg/mL] | ED50 (E. coli ATCC 11775) [mg/kg] | MIC [6] [µg/mL] | ED50 [7] [mg/kg] | MIC [1, 10] [µg/mL] | MIC (E. Coli ATCC 9637) [µg/mL] | MIC [4, 11] [µg/mL] | MIC [8, 12] [µg/mL] | MIC [9] [µg/mL] | MIC (Proteus rettgeri; [13]) [µg/mL] | MIC [5, 14] [µg/mL] | MIC (E. Coli ATCC 9637; [15]) [µg/mL] | MIC [4] [µg/mL] | MIC [8] [µg/mL] | MIC [9, 16] [µg/mL] | MIC (Proteus rettgeri) [µg/mL] | also measured |
| --- | --- | --- | --- | --- | --- | --- | --- | --- | --- | --- | --- | --- | --- | --- | --- | --- | --- | --- | --- |
| Cn1nnnc1SCC1=C(C(=O)O)N2C(=O)[C@@H](NC(=O)C(NC(=O)Nc3cnc(NCc4ccco4)nc3O)c3cccs3)[C@H]2SC1 (single isomer, unassigned) [M] | 4 (≈ 5.72 µM) | 8 (≈ 11.4 µM) | 0.5 (≈ 0.715 µM) | 0.8 | – | – | – | – | – | – | – | – | – | – | – | – | – | – | MIC ([4]; Table IV, Prot. mir. Hbg., 37° C., 18-20 hours, read-out: MIC): 0.12 µg/mL (≈ 0.171 µM); MIC (Proteus rettgeri; Table IV, Prot. rettg., 37° C., 18-20 hours, read-out: MIC): 0.5 µg/mL (≈ 0.715 µM); MIC ([5]; ATCC13880, Table IV, Serr. marcesc. ATCC 13880, 37° C., 18-20 hours, read-out: MIC): 0.5 µg/mL (≈ 0.715 µM) |
| CC1(C)S[C@@H]2[C@H](NC(=O)[C@H](NC(=O)Nc3cnc(NCc4cccnc4)nc3O)c3ccc(O)cc3)C(=O)N2[C@H]1C(=O)O [A, D-α-{3-[4-Hydroxy-2-(3'-pyridylmethylamino)-5-pyrimidinyl]-ureido}-p-hydroxy-benzyl-penicillin sodium] | – | – | 8 | 0.7 | 8 | 1.2 | 1 | 0.5 | 0.12 | 0.5 | 4 | 1 | 0.5 | – | – | – | – | – | – |
| CC1(C)S[C@@H]2[C@H](NC(=O)[C@H](NC(=O)N3CCNC3=O)c3ccccc3)C(=O)N2[C@H]1C(=O)O [Azlocillin, reference compound] | 8 (≈ 17.3 µM) | 8 (≈ 17.3 µM) | – | ~35 | – | ~110 | – | – | – | – | – | – | – | 16 (≈ 34.7 µM) | 2 (≈ 4.33 µM) | 8 (≈ 17.3 µM) | 32 (≈ 69.3 µM) | 8 (≈ 17.3 µM) | MIC ([6]; Table III, Klebs. pneum. ATCC 10031, 37° C., 18-20 hours, read-out: MIC): 32 µg/mL (≈ 69.3 µM); MIC ([3]; Table III, Klebs. pneum. 272, 37° C., 18-20 hours, read-out: MIC): 32 µg/mL (≈ 69.3 µM); MIC ([5]; ATCC13880): 4 µg/mL (≈ 8.67 µM) |
| CC1(C)S[C@@H]2[C@H](NC(=O)[C@H](NC(=O)Nc3cnc(Nc4ccc(C(N)=O)s4)nc3O)c3ccc(O)cc3)C(=O)N2[C@H]1C(=O)O [B, D-α-{3-[2-(5'-Aminocarbonyl-2'-thienylamino)-4-hydroxy-5-pyrimidinyl]-ureido}-p-hydroxy-benzyl-penicillin sodium] | – | – | 2 | 1.3 | 2 | 4.8 | 1 | – | 0.06 | – | 2 | 0.5 | 0.2 | 0.5 | – | 0.25 | – | – | MIC ([2]; Table III, Pseud. aerug. Hbg., 37° C., 18-20 hours, read-out: MIC): 1 µg/mL |
| CC1(C)S[C@@H]2[C@H](NC(=O)[C@H](NC(=O)Nc3cnc(NCc4cccs4)nc3O)c3ccc(O)cc3)C(=O)N2[C@H]1C(=O)O [C, D-α-{3-[4-Hydroxy-2-(2'-thienylmethylamino)-5-pyrimidinyl]-ureido}-p-hydroxy-benzyl-penicillin sodium] | 1 | 2 | 2 | 0.8 | 2 | 2.5 | – | 0.5 | – | 0.5 | – | – | 0.5 | – | 0.25 | – | 0.5 | 0.12 | – |
